Results as given in US10258687B2, “Development of methods for production of a whole virus vaccine candidate stock and novel adaptive mutations in hepatitis C virus” (Hvidovre Hospital, priority 2014, dated 2019).
Values joined by “and” are separate entries in the source; they are usually repeats but may differ in a detail not shown here. Equal entries are not always repeated. Structures can show the parent of a compound that is named as a salt.

How the values were obtained:
[1] = tested on: clathrin-mediated endocytosis; assay: Chlorpromazine inhibition of HCVcc and sf-HCVcc entry; format: cell-based, Human; details: genotype 1-6 HCVcc and sf-HCVcc, cells pre-treated, up to 10 μg/mL
Description: FIG. 11: Effect of chlorpromazine treatment on HCVcc and sf-HCVcc entry. (A-G) Chlorpromazine was diluted in DMEM+10% FBS to the concentrations indicated and then added to Huh7.5 cells, plated the previous day onto poly-D-lysine coated 96-well plates, and incubated for 30 minutes. HCVcc (black bars) were diluted in DMEM+10% FBS and sf-HCVcc (grey bars) were diluted in AEM+10% FBS and added to cultures. After 6 hours incubation, chlorpromazine-virus mixes were removed and DMEM+10% FBS was added. Cells were fixed 48 hours post infection and stained, and the number of single HCV NS5A positive cells per well was determined by automated counting as described in Materials and Methods. The HCV Core-E2 sequences of all virus stocks used were determined by direct sequencing. Sequences were identical for HCVcc and sf-HCVcc of the same recombinant. Compared to the plasmid sequence, H77(1a) viruses had acquired amino acid change I348S and J4(1b) had acquired amino acid change V710L, both estimated to be present in the majority of viral genomes. The % blocking was calculated by relating counts of experimental wells to the mean count of six replicate wells with untreated control virus. […] The % viability was calculated by relating absorbance at 490 nm determined for chlorpromazine treated cultures to the mean absorbance of three replicate untreated cultures. […]

Huh7.5 cells [2] = assay: Chlorpromazine cytotoxicity (cell viability assay); format: cell-based, Human; details: 6 hours treatment
Description: For determination of Huh7.5 cell viability in DMEM+10% FBS versus AEM, we plated 6,000 cells per well of poly-D-lysine coated 96-well plates in DMEM+10% FBS. The following day, medium was removed and cells were incubated in DMEM+10% FBS or AEM for 48 hours. Then, cell viability was determined using the CellTiter 96® AQueous One Solution Cell Proliferation Assay kit (Promega) according to the manufacturer's instructions. The % viability was calculated by relating absorbance at 490 nm determined for 10 AEM cultures to the mean absorbance of 10 replicate DMEM+10% FBS cultures. For determination of chlorpromazine cytotoxicity, chlorpromazine was diluted in DMEM+10% FBS as specified and then added to 6,000 Huh 7.5 cells/well, plated the previous day in poly-D-lysine coated 96-well plates. Cells were incubated for 6 hours before chlorpromazine was removed and DMEM+10% FBS was added. Cell viability was determined 6 and 48 hours post-treatment using the CellTiter 96® AQueous One Solution Cell Proliferation Assay kit. The % viability was calculated by relating absorbance at 490 nm determined for chlorpromazine treated cultures to the mean absorbance of at least three replicate untreated cultures.

[3] = serial passage by others; cited from earlier work
Huh7.5 cells [4] = assay: Supernatant infectivity titration (FFU assay) after transfection, infection or serial passage, Example 2; format: cell-based, Human; details: both kinetics experiments (MOIs of 0.003 and 0.0003)
Description: For transfection of Huh7.5 cells, 350,000 cells/well were seeded in 6-well plates (Nunc) and incubated for 24 hours. Plasmids (10 μg) were linearized by over-night digestion with XbaI (New England Biolabs). Linearized plasmids were purified using Wizard® SV Gel and PCR Clean-Up System (Promega). In vitro transcription was performed using T7 RNA polymerase (Promega) for 2 hours at 37° C. Transfection was performed by incubating 5 μL lipofectamine 2000 (Invitrogen) and the RNA transcripts in 500 μL serum-free Opti-MEM (Gibco/Invitrogen) for 20 minutes at room temperature. RNA-lipofectamine complexes were added to the pre-plated cells and incubated for 16-24 hours. Transfection efficiencies and culture spread were determined by HCV NS5A immunostaining (see below). […]
For infection of Huh7.5 cells in culture flasks, cells were seeded and incubated for 24 hours. When cells were evaluated to be ˜80% confluent, they were infected at a multiplicity of infection (MOI) of either 0.003 or 0.0003 for 3 hours (see Figure legends for details). […] Infection spread was monitored by HCV NS5A immunostaining (see below). […] For serum-free cultures, cells were infected in complete DMEM as described above and spread was monitored by NS5A immunostaining. […]
Culture supernatant infectivity titers were determined as Focus Forming Units (FFU)/mL. […]

Huh7.5 cells [5] = assay: Infectivity of virus diluted in different media (FIG. 7); format: cell-based, Human; details: virus diluted in AEM prior to infection
Description: (A-C) Cells were incubated with virus mixes for 3 hours. After incubation, fresh DMEM+10% FBS was added to all wells. Cells were incubated for 48 hours before they were fixed, stained and the number of single HCV NS5A positive cells per well was determined by automated counting as described in Materials and Methods. Error bars represent SEM of triplicates. For (B), the mean infectivity (HCV NS5A positive cells/well) of triplicate wells of the reference culture (DMEM+10% FBS, black bar) was set to 100%. The number of HCV NS5A positive cells/experimental well was related to this mean to calculate % infectivity relative to the reference culture.

| Molecule | blocking rates [1] | highest concentration not resulting in cytotoxic effects (Huh7.5 cells [2]) [µg/mL] | peak infectivity titers of adapted stocks [3] | peak infectivity titers (Huh7.5 cells [4]) | infectivity using AEM during the viral infection step (in words) (Huh7.5 cells [5]) |
| --- | --- | --- | --- | --- | --- |
| CN(C)CCCN1c2ccccc2Sc2ccc(Cl)cc21 [chlorpromazine, chlorpromazine hydrochloride] | up to 93% | 10 |  |  |  |
| J6/JFH1 [J6(2a)] |  |  | 8 log 10 TCID50/mL and ~6.5 log 10 TCID50/mL | 4.8 log 10 FFU/mL and 4.9 log 10 FFU/mL | infectivity was also reduced |
